Results published in US10112954B2, “Bicyclic heteroaryl derivatives having inhibitory activity for protein kinase” (HANMI PHARM. CO., LTD., priority 2010, dated 2018).

What was measured:
FGFR3 = biological target: T1, FGFR3 (Homo sapiens, UniProt P22607); assay: Inhibition of FGFR3 kinase (fluorescence polarization kinase assay); type: biochemical; settings: Table 2, class symbols; read-out: FGFR3 IC50
T1 construct: purchased Upstate Company
Procedure: (§1) Inhibition activities of kinases of the inventive compounds (test compounds) prepared in the Examples were assessed and represented as IC50 values.
(§2) Kinases used in Test Examples 1 to 3 were purchased from Upstate Company.
(§3) 100 mM HEPES (pH 7.4), 25 mM MgCl2, 10 mM MnCl2 and 250 μM Na3VO4 were mixed to prepare a kinase buffer. Each of kinases to be measured was diluted to a concentration of 25˜300 ng per one reaction according to its activity with the kinase buffer. Also, each of the test compounds was serially diluted to a concentration starting from 100 nM up to 0.1 nM with the kinase buffer. 10 μl of the serially diluted solution of each of the test compounds and 10 μl of the diluted kinase were added to each well of a 96-well microplate, and the plate was incubated at room temperature for 10 mins. 10 μl of a substrate and 10 μl of ATP were successively added thereto to initiate a kinase reaction, and the resulting mixture was incubated at room temperature for 1 hour. The ATP was used in a form of a solution diluted to a concentration determined according to a kinase's Km value with distilled water. 10˜100 ng/mL poly(Glu, Tyr) 4:1 (Sigma) was used as the substrate. 10 μl of 6 mM EDTA was added to each well and stirred for 5 mins to terminate the kinase reaction. For a measurement of phosphorylation degree, 50 μl of a solution containing anti-phosphotyrosine antibody and fluorescein-labeled phosphopeptide was added to the reaction mixture, followed by incubating for 30 mins. The FP (fluorescence polarization) value of each well was determined with a Victor™ D fluorescence meter (Perkin Elmer Lifesciences).
(§4) IC50, the concentration at which 50% inhibition occurs, was evaluated based on the difference between the final concentration of the test cells and the initial concentration of the cells incubated in a well not-treated with the test compound which was regarded as 100%. IC50 values of the test compounds on the FGFR kinase were shown in Table 2, and those of the test compound obtained in Example 177 on various kinases, in Table 3.

FGFR1 = biological target: T2, FGFR1 (Homo sapiens, UniProt P11362); assay: Inhibition of FGFR1 kinase (fluorescence polarization kinase assay); type: biochemical; settings: Table 2, class symbols; read-out: FGFR1 IC50
T2 construct: purchased Upstate Company
Procedure: as §1, §2, §3, §4

T1 sequence (P22607 23-806, species assumed): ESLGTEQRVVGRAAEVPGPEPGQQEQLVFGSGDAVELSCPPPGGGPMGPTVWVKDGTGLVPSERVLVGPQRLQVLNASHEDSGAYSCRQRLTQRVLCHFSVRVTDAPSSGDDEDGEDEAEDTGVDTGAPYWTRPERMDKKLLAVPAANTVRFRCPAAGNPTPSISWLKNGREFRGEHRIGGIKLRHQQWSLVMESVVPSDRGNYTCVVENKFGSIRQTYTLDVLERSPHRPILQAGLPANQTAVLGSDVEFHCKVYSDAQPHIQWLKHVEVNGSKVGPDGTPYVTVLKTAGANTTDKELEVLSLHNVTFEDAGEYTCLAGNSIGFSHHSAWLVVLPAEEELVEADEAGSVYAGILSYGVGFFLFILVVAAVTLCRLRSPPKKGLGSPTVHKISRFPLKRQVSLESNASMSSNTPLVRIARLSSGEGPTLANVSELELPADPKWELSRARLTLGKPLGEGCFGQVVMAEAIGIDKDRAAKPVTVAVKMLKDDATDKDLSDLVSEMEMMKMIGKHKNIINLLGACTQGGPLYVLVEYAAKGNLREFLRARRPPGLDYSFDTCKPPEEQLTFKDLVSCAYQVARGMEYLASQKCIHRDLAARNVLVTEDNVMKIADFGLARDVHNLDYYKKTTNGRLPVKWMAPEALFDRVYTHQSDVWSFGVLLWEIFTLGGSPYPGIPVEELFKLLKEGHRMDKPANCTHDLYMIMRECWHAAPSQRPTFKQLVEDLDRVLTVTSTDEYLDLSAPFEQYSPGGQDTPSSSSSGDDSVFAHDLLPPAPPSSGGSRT
T2 sequence (P11362 22-822, species assumed): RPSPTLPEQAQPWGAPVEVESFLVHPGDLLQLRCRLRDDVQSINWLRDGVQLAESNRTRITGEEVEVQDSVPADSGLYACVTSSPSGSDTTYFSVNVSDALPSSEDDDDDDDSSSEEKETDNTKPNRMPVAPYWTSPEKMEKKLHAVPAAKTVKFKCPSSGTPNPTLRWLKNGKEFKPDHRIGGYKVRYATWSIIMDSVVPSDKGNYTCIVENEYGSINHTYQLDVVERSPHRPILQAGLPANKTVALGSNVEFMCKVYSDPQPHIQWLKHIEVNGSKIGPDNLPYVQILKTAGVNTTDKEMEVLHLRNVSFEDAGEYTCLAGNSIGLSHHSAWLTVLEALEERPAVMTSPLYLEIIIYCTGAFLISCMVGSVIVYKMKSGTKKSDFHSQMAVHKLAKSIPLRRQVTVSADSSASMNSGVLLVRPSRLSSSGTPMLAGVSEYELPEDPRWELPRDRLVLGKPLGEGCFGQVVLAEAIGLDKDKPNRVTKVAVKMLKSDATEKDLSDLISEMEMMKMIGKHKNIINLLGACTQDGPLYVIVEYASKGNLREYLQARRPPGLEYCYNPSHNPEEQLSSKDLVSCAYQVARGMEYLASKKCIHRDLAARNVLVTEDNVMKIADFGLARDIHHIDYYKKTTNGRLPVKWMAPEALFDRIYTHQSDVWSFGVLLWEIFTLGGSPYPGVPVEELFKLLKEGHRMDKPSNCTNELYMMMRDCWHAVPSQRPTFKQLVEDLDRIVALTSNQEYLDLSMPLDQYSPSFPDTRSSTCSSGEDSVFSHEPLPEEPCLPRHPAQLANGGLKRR

Row | Compound | IC50 (FGFR3) | IC50 (FGFR1)
1 | COc1cc(OC)c(Cl)c(NC(=O)c2csc3c(Nc4ccc(CC(=O)N5CCOCC5)cn4)ncnc23)c1Cl [Example 257, N-(2,6-dichloro-3,5-dimethoxyphenyl)-4-(5-(2-morpholino-2-oxoethyl)pyridin-2-ylamino)thieno[3,2-d]pyrimidine-7-carboxamide] | 1 to 100 nM | –
2 | COc1cc(OC)c(Cl)c(NC(=O)c2csc3c(Nc4ccc(C(N)=O)cn4)ncnc23)c1Cl [Example 274, 4-(5-carbamoylpyridin-2-ylamino)-N-(2,6-dichloro-3,5-dimethoxyphenyl) thieno[3,2-d]pyrimidine-7-carboxamide] | 1 to 100 nM | –
3 | CCN1CCN(c2ccc(C(=O)Nc3ncnc4c(C(=O)Nc5c(Cl)c(OC)c(Br)c(OC)c5Cl)csc34)cc2)CC1 [Example 203, N-(4-bromo-2,6-dichloro-3,5-dimethoxyphenyl)-4-(4-(4-ethylpiperazin-1-yl)benzamido)thieno[3,2-d]pyrimidine-7-carboxamide] | 1000 to 5000 nM | –
4 | CCN1CCN(CCCNc2ncnc3c(C(=O)Nc4c(Cl)c(OC)cc(OC)c4Cl)csc23)CC1 [Example 171, N-(2,6-dichloro-3,5-dimethoxyphenyl)-4-(3-(4-ethylpiperazin-1-yl)propylamino) thieno[3,2-d]pyrimidine-7-carboxamide] | 1000 to 5000 nM | –
5 | COc1cc(OC)c(Cl)c(NC(=O)c2csc3c(Nc4ccc(CN5CCNC(=O)C5)cn4)ncnc23)c1Cl [Example 263, N-(2,6-dichloro-3,5-dimethoxyphenyl)-4-(5-((3-oxopiperazin-1-yl)methyl)pyridin-2-ylamino)thieno[3,2-d]pyrimidine-7-carboxamide] | 1 to 100 nM | –
6 | COc1c(Cl)c(NC(=O)c2csc3c(Nc4ccc(F)c(Cl)c4)ncnc23)c(Cl)c(OC)c1Br [Example 287, N-(4-bromo-2,6-dichloro-3,5-dimethoxyphenyl)-4-(3-chloro-4-fluorophenylamino) thieno[3,2-d]pyrimidine-7-carboxamide] | 1000 to 5000 nM | –
7 | COc1cc(OC)c(Cl)c(NC(=O)c2csc3c(Nc4cc(NCCN5CCOCC5)ncn4)ncnc23)c1Cl [Example 208, N-(2,6-dichloro-3,5-dimethoxyphenyl)-4-(6-(2-morpholinoethyl-amino)pyrimidin-4-ylamino)thieno[3,2-d]pyrimidine-7-carboxamide] | 1 to 100 nM | –
8 | COc1cc(OC)c(Cl)c(NC(=O)c2csc3c(Nc4ccc(CN5CCCC(C(F)(F)F)C5)cn4)ncnc23)c1Cl (stereo not shown) [Example 259, N-(2,6-dichloro-3,5-dimethoxyphenyl)-4-(5-((3-(trifluoromethyl)piperidin-1-yl)methyl)pyridin-2-ylamino)thieno[3,2-d]pyrimidine-7-carboxamide] | 1000 to 5000 nM | –
9 | COc1cc(OC)c(Cl)c(NC(=O)c2csc3c(Nc4cc(CN5CCSC5)ccn4)ncnc23)c1Cl [Example 291, N-(2,6-dichloro-3,5-dimethoxyphenyl)-4-(4-(thiazolidin-3-ylmethyl)pyridin-2-ylamino)thieno[3,2-d]pyrimidine-7-carboxamide] | 1 to 100 nM | –
10 | CCOC(=O)CNc1ncnc2c(C(=O)Nc3c(Cl)c(OC)cc(OC)c3Cl)csc12 [Example 302, ethyl 2-(7-(2,6-dichloro-3,5-dimethoxyphenyl-carbamoyl)thieno[3,2-d]pyrimidin-4-ylamino)acetate] | 1000 to 5000 nM | 1000 to 5000 nM
11 | COc1cc(NC(=O)c2csc3c(N)ncnc23)c2ccoc2c1 [Example 113] | 1000 to 5000 nM | –
12 | CCN(CC)CCOc1ccc(Nc2ncnc3c(C(=O)Nc4c(Cl)c(OC)cc(OC)c4Cl)csc23)cc1 [Example 196, N-(2,6-dichloro-3,5-dimethoxyphenyl)-4-(4-(2-(diethylamino)ethoxy)phenylamino) thieno[3,2-d]pyrimidine-7-carboxamide] | 500 to 1000 nM | 100 to 500 nM
13 | CCN1CCN(c2cccc(Nc3ncnc4c(C(=O)Nc5c(Cl)c(OC)cc(OC)c5Cl)csc34)c2)CC1 [Example 201, N-(2,6-dichloro-3,5-dimethoxyphenyl)-4-(3-(4-ethylpiperazin-1-yl)phenylamino) thieno[3,2-d]pyrimidine-7-carboxamide] | 100 to 500 nM | 100 to 500 nM
14 | COc1cc(OC)c(Cl)c(NC(=O)c2csc3c(Nc4cc(OCCN(C)C)ncn4)ncnc23)c1Cl [Example 209, N-(2,6-dichloro-3,5-dimethoxyphenyl)-4-(6-(2-(dimethylamino)eth-oxy)pyrimidin-4-ylamino)thieno[3,2-d]pyrimidine-7-carboxamide] | 100 to 500 nM | –
15 | CCN(CC)CCCCNc1ncnc2c(C(=O)Nc3c(Cl)c(OC)c(Br)c(OC)c3Cl)csc12 [Example 157, N-(4-bromo-2,6-dichloro-3,5-dimethoxyphenyl)-4-(4-(diethylamino)butyl-amino)thieno[3,2-d]pyrimidine-7-carboxamide] | 1000 to 5000 nM | –
16 | CCN1CCN(c2cc(Nc3ncnc4c(C(=O)Nc5c(Cl)c(OC)cc(OC)c5Cl)csc34)ncn2)CC1 [Example 182, N-(2,6-dichloro-3,5-dimethoxyphenyl)-4-(6-(4-ethylpiperazin-1-yl)pyrimidin-4-ylamino)thieno[3,2-d]pyrimidine-7-carboxamide] | 1 to 100 nM | –
17 | COc1cc(OC)c(Cl)c(NC(=O)c2csc3c(NC4CC4)ncnc23)c1Cl [Example 168, 4-(cyclopropylamino)-N-(2,6-dichloro-3,5-dimethoxyphenyl) thieno[3,2-d]pyrimidine-7-carboxamide] | 1 to 100 nM | –
18 | CCN(CC)Cc1cccc(Nc2ncnc3c(C(=O)Nc4c(Cl)c(OC)cc(OC)c4Cl)csc23)n1 [Example 273, N-(2,6-dichloro-3,5-dimethoxyphenyl)-4-(6-((diethylamino)methyl)pyridin-2-ylamino)thieno[3,2-d]pyrimidine-7-carboxamide] | 1000 to 5000 nM | –
19 | COc1cc(NC(=O)c2csc3c(Nc4ccccc4)ncnc23)c2ccoc2c1 [Example 114] | 1000 to 5000 nM | –

Further lines, results first:

Row | IC50 (FGFR3) | IC50 (FGFR1) | Compound
20 | 1 to 100 nM | – | COc1cc(OC)c(Cl)c(NC(=O)c2csc3c(Nc4ccc(C(=O)N5CCOCC5)cn4)ncnc23)c1Cl [Example 255, N-(2,6-dichloro-3,5-dimethoxyphenyl)-4-(5-(morpholine-4-carbonyl)pyridin-2-ylamino)thieno[3,2-d]pyrimidine-7-carboxamide]
21 | 1 to 100 nM | – | COc1cc(OC)c(Cl)c(NC(=O)c2csc3c(Nc4cc(C)ccn4)ncnc23)c1Cl [Example 270, N-(2,6-dichloro-3,5-dimethoxyphenyl)-4-(4-methylpyridin-2-ylamino)thieno[3,2-d]pyrimidine-7-carboxamide]
22 | 1 to 100 nM | – | COc1cc(OC)c(Cl)c(NC(=O)c2csc3c(Nc4ccc(C(=O)NN5CCN(C)CC5)cn4)ncnc23)c1Cl [Example 268, N-(2,6-dichloro-3,5-dimethoxyphenyl)-4-(5-(4-methylpiperazin-1-ylcarbamoyl)pyridin-2-ylamino)thieno[3,2-d]pyrimidine-7-carboxamide]
23 | 1 to 100 nM | 1 to 100 nM | COc1cc(OC)c(Cl)c(NC(=O)c2csc3c(Nc4ccc(NC(=O)CN(C)C)cn4)ncnc23)c1Cl [Example 299, N-(2,6-dichloro-3,5-dimethoxyphenyl)-4-(5-(2-(dimethylamino)acetamido)pyridin-2-ylamino)thieno[3,2-d]pyrimidine-7-carboxamide]
24 | 1000 to 5000 nM | – | COc1cc(OC)c(Cl)c(/C=C/c2csc3c(N)ncnc23)c1Cl [Example 76, 7-(2,6-dichloro-3,5-dimethoxystyryl) thieno[3,2-d]pyrimidine-4-amine]
25 | 500 to 1000 nM | 100 to 500 nM | CCOC(=O)NC(=S)Nc1ncnc2c(C(=O)Nc3c(Cl)c(OC)cc(OC)c3Cl)csc12 [Example 216, N-(2,6-dichloro-3,5-dimethoxyphenyl)-4-(3-(ethoxycarbonyl)thioureido)thieno[3,2-d]pyrimidine-7-carboxamide]
26 | 1000 to 5000 nM | – | COc1cc(OC)c(Cl)c(NC(=O)c2csc3c(NS(C)(=O)=O)ncnc23)c1Cl [Example 206, N-(2,6-dichloro-3,5-dimethoxyphenyl)-4-(methylsulfonamido) thieno[3,2-d]pyrimidine-7-carboxamide]
27 | 100 to 500 nM | – | COc1cc(OC)c(Cl)c(NC(=O)c2csc3c(Nc4ccc(C)cn4)ncnc23)c1Cl [Example 178, N-(2,6-dichloro-3,5-dimethoxyphenyl)-4-(5-methylpyridin-2-ylamino)thieno[3,2-d]pyrimidine-7-carboxamide]
28 | 1 to 100 nM | – | CCN(CC)C(=O)Cc1ccnc(Nc2ncnc3c(C(=O)Nc4c(Cl)c(OC)cc(OC)c4Cl)csc23)c1 [Example 292, N-(2,6-dichloro-3,5-dimethoxyphenyl)-4-(4-(2-(diethylamino)-2-oxoethyl)pyridin-2-ylamino)thieno[3,2-d]pyrimidine-7-carboxamide]
29 | 100 to 500 nM | – | CCN1CCN(c2ccc(C(=O)Nc3ncnc4c(C(=O)Nc5c(Cl)c(OC)cc(OC)c5Cl)csc34)cc2)CC1 [Example 204, N-(2,6-dichloro-3,5-dimethoxyphenyl)-4-(4-(4-ethylpiperazin-1-yl)benzamido)thieno[3,2-d]pyrimidine-7-carboxamide]
